Key:
[1] = test system: velvetleaf (Abutilon theophrasti); assay: Test Example 2: soil surface treatment of field; format: in vivo; settings: soil surface spray, dosage 500 g/ha, 19 days after application
Excerpt: (§1) A cylindrical plastic pot having a diameter of 10 cm and a depth of 10 cm was filled with soil and then seeded with ivyleaf morningglory (Ipomoea hederacea) and velvetleaf (Abutilon theophrasti). Then, each of the compounds 1-2, 1-42, 1-48, 2-2, 2-7, 2-42, 2-45, 3-2, 3-12, 4-7, 4-85, 5-12-R, 5-12-S, 5-17, 6-2, 7-2, 7-6, 7-8, 7-12, 7-48, 7-50, 7-84, 7-118, 7-119, 7-125, 9-7, 9-27 and 9-45 was formulated into an emulsifiable concentrate according to Formulation Example 2 and then diluted to the prescribed amount with water, and the dilution was uniformly sprayed over the surface of the soil with a sprayer at a rate of 1000 liters per hectare. After the application, the test plants were grown in the greenhouse for 19 days, and the herbicidal activity was examined.

[2] = test system: ivyleaf morningglory (Ipomoea hederacea); assay: Test Example 2: soil surface treatment of field; format: in vivo; settings: soil surface spray, dosage 500 g/ha, 19 days after application
Excerpt: as §1

[3] = test system: velvetleaf (Abutilon theophrasti); assay: Test Example 1: foliar treatment of field; format: in vivo; settings: foliar spray, dosage 125 g/ha, 16 days after application
Method: (§2) A cylindrical plastic pot having a diameter of 10 cm and a depth of 10 cm was filled with soil and then seeded with ivyleaf morningglory (Ipomoea hederacea) and velvetleaf (Abutilon theophrasti). These test plants were grown in a greenhouse for 10 days. Then, each of compounds 1-2, 1-42, 1-45, 1-48, 2-2, 2-7, 2-42, 2-45, 3-2, 3-12, 4-7, 4-85, 5-12-R, 5-12-S, 5-17, 6-2, 7-2, 7-6, 7-8, 7-12, 7-48, 7-50, 7-84, 7-118, 7-119, 7-125, 9-7, 9-27 and 9-45 was formulated into an emulsifiable concentrate according to Formulation Example 2 and then diluted to the prescribed amount with water containing a spreading agent and the dilution was uniformly sprayed over the foliage of the test plants with a sprayer at a rate of 1000 liters per hectare. After the application, the test plants were grown in the greenhouse for 16 days, and the herbicidal activity was determined.

[4] = test system: ivyleaf morningglory (Ipomoea hederacea); assay: Test Example 1: foliar treatment of field; format: in vivo; settings: foliar spray, dosage 125 g/ha, 16 days after application
Method: as §2

[5] = test system: giant foxtail (Setaria faberi); assay: Test Example 6: foliar spray, herbicidal activity index; format: in vivo; parameters: key: “0” means that there was no or little difference in the degree of germination or growth between the treated and the untreated tested plants at the time of examination; “10” means that the test plants died complete or their germination or growth was completely inhibited; settings: 4 days after application, index 0-10
Method: (§3) A plastic pot having longer side of 27 cm, shorter side of 19 cm and depth of 7 cm was filled with soil and then seeded with large crabgrass (Digitaria sanguinalis) and giant foxtail (Setaria faberi). Nine days after, barnyardgrass (Echinochloa crus-galli) was seeded therein and grown for 15 days in a greenhouse. Further, a plastic pot having longer side of 16.5 cm, shorter side of 12 cm and depth of 7 cm was filled with soil and then seeded with wild oat (Avena fatua), and grown for 18 days in a greenhouse. Then, each of the present compound 1-67 and A was formulated into an emulsifiable concentrate according to Formulation Example 2 and then diluted to the prescribed amount with water containing a spreading agent and the dilution was uniformly sprayed over the foliage of the test plants with a sprayer at a rate of 1000liters per hectare. After the application, the test plants were grown in the greenhouse for 4 days, and the herbicidal activity was examined. (In the Table 12, the test plants are shown as follows.
(§4) Barnyardgrass: B, Large crabgrass: LC, Giant foxtail: GF, Wild oat: W

[6] = test system: barnyardgrass (Echinochloa crus-galli); assay: as above; format: in vivo; parameters: key: “0” means that there was no or little difference in the degree of germination or growth between the treated and the untreated tested plants at the time of examination; “10” means that the test plants died complete or their germination or growth was completely inhibited; settings: 4 days after application, index 0-10
Method: as §3, §4

[7] = test system: large crabgrass (Digitaria sanguinalis); assay: as above; format: in vivo; settings: 4 days after application, index 0-10
Method: as §3, §4

wild oat (Avena fatua) [8] = assay: as above; format: in vivo; settings: 4 days after application, index 0-10
Method: as §3, §4

wild oat (Avena fatua) [9] = assay: Test Example 7: foliar spray, herbicidal activity index; format: in vivo; settings: 4 days after application, index 0-10
Method: as §3, with “compound 1-45” for “compound 1-67”, “and B” for “and A”, “of 1000 liters” for “of 1000liters”, “Table 13,” for “Table 12,”
as §4

[10] = test system: large crabgrass (Digitaria sanguinalis); assay: as above; format: in vivo; settings: 4 days after application, index 0-10
Method: as §3, with “compound 1-45” for “compound 1-67”, “and B” for “and A”, “of 1000 liters” for “of 1000liters”, “Table 13,” for “Table 12,”
as §4

[11] = test system: giant foxtail (Setaria faberi); assay: as above; format: in vivo; settings: 4 days after application, index 0-10
Method: as §3, with “compound 1-45” for “compound 1-67”, “and B” for “and A”, “of 1000 liters” for “of 1000liters”, “Table 13,” for “Table 12,”
as §4

[12] = test system: barnyardgrass (Echinochloa crus-galli); assay: as above; format: in vivo; settings: 4 days after application, index 0-10
Method: as §3, with “compound 1-45” for “compound 1-67”, “and B” for “and A”, “of 1000 liters” for “of 1000liters”, “Table 13,” for “Table 12,”
as §4

## COC(=O)C(C)Oc1ccnc(Sc2cc(-n3c(=O)cc(C(F)(F)F)n(C)c3=O)c(F)cc2Cl)n1 (stereo not shown) [Compound 6-2, methyl 2-([2-{2-chloro-4-fluoro-5-[3-methyl-2,6-dioxo-4-(trifluoromethyl)-1,2,3,6-tetrahydropyrimidin-1-yl]phenylthio}pyrimidin-4-yl]oxy}propionate]
other
  melting point: 60.2 °C
[1]
  growth of velvetleaf (herbicidal activity): completely controlled
[2]
  growth of ivyleaf morningglory (herbicidal activity): completely controlled
[3]
  growth of velvetleaf (herbicidal activity): completely controlled
[4]
  growth of ivyleaf morningglory (herbicidal activity): completely controlled

## COC(=O)COc1ncncc1Oc1cc(-n2c(=O)cc(C(F)(F)F)n(C)c2=O)c(F)cc1Cl [Compound 4-7, 5-{2-chloro-4-fluoro-5-[3-methyl-2,6-dioxo-4-(trifluoromethyl)-1,2,3,6-tetrahydropyrimidin-1-yl]phenoxy}-4-(methoxycarbonyl)methoxypyrimidine]
other
  melting point: 52.5 °C
[1]
  growth of velvetleaf (herbicidal activity): completely controlled
[2]
  growth of ivyleaf morningglory (herbicidal activity): completely controlled
[3]
  growth of velvetleaf (herbicidal activity): completely controlled
[4]
  growth of ivyleaf morningglory (herbicidal activity): completely controlled

## COc1cc(OC)nc(Nc2cc(-n3c(=O)cc(C(F)(F)F)n(C)c3=O)c(F)cc2Cl)n1 [A, reference compound]
[5]; dosage 32 g/ha
  Herbicidal activity GF: 4
[5]; dosage 125 g/ha
  Herbicidal activity GF: 5
[6]; dosage 32 g/ha
  Herbicidal activity B: 4
[6]; dosage 125 g/ha
  Herbicidal activity B: 4
[7]; dosage 32 g/ha
  Herbicidal activity LC: 6
[7]; dosage 125 g/ha
  Herbicidal activity LC: 8
Wild oat (Avena fatua) [8]; dosage 32 g/ha
  Herbicidal activity W: 2
Wild oat (Avena fatua) [8]; dosage 125 g/ha
  Herbicidal activity W: 3

## COc1nc(OC)nc(Oc2cc(-n3c(=O)cc(C(F)(F)F)n(C)c3=O)c(F)cc2Cl)n1 [B, reference compound]
Wild oat (Avena fatua) [9]; dosage 32 g/ha
  Herbicidal activity W: 6
Wild oat (Avena fatua) [9]; dosage 125 g/ha
  Herbicidal activity W: 9
[10]; dosage 32 g/ha
  Herbicidal activity LC: 8
[10]; dosage 125 g/ha
  Herbicidal activity LC: 8
[11]; dosage 32 g/ha
  Herbicidal activity GF: 6
[11]; dosage 125 g/ha
  Herbicidal activity GF: 8
[12]; dosage 32 g/ha
  Herbicidal activity B: 6
[12]; dosage 125 g/ha
  Herbicidal activity B: 8

## COC(=O)COc1cncnc1Oc1cc(-n2c(=O)cc(C(F)(F)F)n(C)c2=O)c(F)cc1Cl [Compound 3-57, 4-{2-chloro-4-fluoro-5-[3-methyl-2,6-dioxo-4-(trifluoromethyl)-1,2,3,6-tetrahydropyrimidin-1-yl]phenoxy}-5-(methoxycarbonyl)methoxypyrimidine]
other
  melting point: 62.5 °C

## COC(=O)COc1cc(OC)nc(Nc2cc(-n3c(=O)cc(C(F)(F)F)n(C)c3=O)c(F)cc2Cl)n1 [Compound 1-67, 2-{2-chloro-4-fluoro-5-[3-methyl-2,6-dioxo-4-(trifluoromethyl)-1,2,3,6-tetrahydropyrimidin-1-yl]phenylamino}-6-methoxy-4-(methoxycarbonyl)methoxypyrimidine]
[5]; dosage 32 g/ha
  Herbicidal activity GF: 10
[5]; dosage 125 g/ha
  Herbicidal activity GF: 10
[6]; dosage 32 g/ha
  Herbicidal activity B: 10
[6]; dosage 125 g/ha
  Herbicidal activity B: 10
[7]; dosage 32 g/ha
  Herbicidal activity LC: 9
[7]; dosage 125 g/ha
  Herbicidal activity LC: 9
Wild oat (Avena fatua) [8]; dosage 32 g/ha
  Herbicidal activity W: 8
Wild oat (Avena fatua) [8]; dosage 125 g/ha
  Herbicidal activity W: 9

## COC(=O)COc1ncccc1Oc1cc(-n2c(=O)cc(C(F)(F)F)n(C)c2=O)c(F)cc1C#N [Compound 9-27, 3-{2-cyano-4-fluoro-5-[3-methyl-2,6-dioxo-4-(trifluoromethyl)-1,2,3,6-tetrahydropyrimidin-1-yl]phenoxy}-2-(methoxycarbonyl)methoxypyridine]
other
  melting point: 173.1 °C
[1]
  growth of velvetleaf (herbicidal activity): completely controlled
[2]
  growth of ivyleaf morningglory (herbicidal activity): completely controlled
[3]
  growth of velvetleaf (herbicidal activity): completely controlled
[4]
  growth of ivyleaf morningglory (herbicidal activity): completely controlled

## COC(=O)C(C)Oc1nccc(Oc2cc(-n3c(=O)cc(C(F)(F)F)n(C)c3=O)c(F)cc2Cl)n1 (stereo not shown) [Compound 3-2, methyl 2-([4-{2-chloro-4-fluoro-5-[3-methyl-2,6-dioxo-4-(trifluoromethyl)-1,2,3,6-tetrahydropyrimidin-1-yl]phenoxy}pyrimidin-2-yl]oxy)propionate]
[1]
  growth of velvetleaf (herbicidal activity): completely controlled
[2]
  growth of ivyleaf morningglory (herbicidal activity): completely controlled
[3]
  growth of velvetleaf (herbicidal activity): completely controlled
[4]
  growth of ivyleaf morningglory (herbicidal activity): completely controlled

## COC(=O)C(C)Oc1cc(OC)nc(Oc2cc(-n3c(=O)cc(C(F)(F)F)n(C)c3=O)c(F)cc2Cl)n1 (stereo not shown) [Compound 1-42, 2-{2-chloro-4-fluoro-5-[3-methyl-2,6-dioxo-4-(trifluoromethyl)-1,2,3,6-tetrahydropyrimidin-1-yl]phenoxy}-6-methoxy-4-{1-(methoxycarbonyl)ethoxy}pyrimidine]
other
  melting point: 71.2 °C
[1]
  growth of velvetleaf (herbicidal activity): completely controlled
[2]
  growth of ivyleaf morningglory (herbicidal activity): completely controlled
[3]
  growth of velvetleaf (herbicidal activity): completely controlled
[4]
  growth of ivyleaf morningglory (herbicidal activity): completely controlled

Reference: patent publication US6537948B1, “Uracil compounds and use thereof” (Sumitomo Chemical Company, Limited, priority 2000, dated 2003)
